Experimental data taken from article PMC9490041, “Determinants of affinity, specificity, and phase separation in a supramodule from Post-synaptic density protein 95” (iScience, 2022).
pKi: −log10 of the molar value. Read-outs that look alike come from different tables or passages of the source. Ends that are not written are not given here.

Columns and labels:
Assay in all cases: FP displacement (competition) of FITC-15 AA CRIPT by library peptide, IC50 and Ki
[1] = target: PSG G322A G335A (PSD-95); settings: for IC50: read-out: IC50 (µM), PSG G322A G335A; for Ki: read-out: Ki (µM), PSG G322A G335A
[2] = target: PSG G335A (PSD-95); settings: for IC50: read-out: IC50 (µM), PSG G335A; for Ki: read-out: Ki (µM), PSG G335A
[3] = target: PSG (PSD-95); settings: for IC50: read-out: IC50 (µM), PSG; for Ki: read-out: Ki (µM), PSG
[4] = target: PSG G322A (PSD-95); settings: for IC50: read-out: IC50 (µM), PSG G322A; for Ki: read-out: Ki (µM), PSG G322A
[5] = FP displacement of FITC-15 AA CRIPT probe by acetylated PSD library peptide (P-13 to P0 plus extra N-terminal Y)
[6] = FP displacement of FITC-15 AA CRIPT probe by acetylated PSD library peptide
[7] = FP displacement of FITC-15 AA CRIPT probe by PSD library peptide, protein PSG G322A G335A
[8] = FP displacement of FITC-15 AA CRIPT probe by PSD library peptide, protein PSG G335A
[9] = FP displacement of FITC-15 AA CRIPT probe by PSD library peptide, protein PSG (wild type)
[10] = FP displacement of FITC-15 AA CRIPT probe by PSD library peptide, protein PSG G322A

Row | Compound | IC50 [1, 5] | Ki [1, 6] | IC50 [2, 6] | Ki [2, 6] | IC50 [3, 6] | Ki [3, 6] | IC50 [4, 6] | Ki [4, 6] | IC50 [1, 7] | IC50 [2, 8] | pKi ([3]; FP displacement of 5 nM FITC-15 AA CRIPT by non-labeled acetylated peptide, room temperature, Ki from IC50, technical triplicates, PSG) | IC50 [3, 9] | Ki [3, 9] | IC50 [4, 10] | Ki [4, 10] | Ki [1, 7] | Ki [2, 8]
1 | CC(=O)N[C@@H](Cc1ccc(O)cc1)C(=O)N[C@@H](CC(C)C)C(=O)N1CCC[C@H]1C(=O)N[C@@H](CC(C)C)C(=O)N[C@@H](CC(=O)O)C(=O)N[C@H](C(=O)N[C@@H](CCC(N)=O)C(=O)N[C@@H](CCC(=O)O)C(=O)NCC(=O)N[C@@H](CC(=O)O)C(=O)N[C@@H](Cc1ccccc1)C(=O)N[C@@H](CCC(N)=O)C(=O)N[C@H](C(=O)N[C@@H](CCC(=O)O)C(=O)N[C@H](C(=O)O)C(C)C)[C@@H](C)O)C(C)C [AGRB3] | 534 µM | 185 µM | 1130 µM | 402 µM | 1080 µM | 459 µM | 342 µM | 148 µM | – | – | – | – | – | – | – | – | –
2 | CSCC[C@H](NC(=O)[C@H](CCC(N)=O)NC(=O)[C@H](CC(=O)O)NC(=O)[C@H](Cc1ccc(O)cc1)NC(=O)[C@H](CC(=O)O)NC(=O)[C@@H]1CCCN1C(=O)[C@H](CO)NC(=O)[C@H](CCCCN)NC(=O)[C@H](CC(C)C)NC(=O)[C@H](Cc1ccc(O)cc1)NC(C)=O)C(=O)N[C@@H](CO)C(=O)N[C@@H](CO)C(=O)N[C@@H](CO)C(=O)N1CCC[C@H]1C(=O)N[C@@H](CS)C(=O)O [CCG5] | 2450 µM | 847 µM | 2540 µM | 907 µM | 1410 µM | 600 µM | 2060 µM | 894 µM | – | – | – | – | – | – | – | – | –
3 | CSCC[C@H](NC(=O)[C@H](CO)NC(=O)[C@H](Cc1ccc(O)cc1)NC(=O)[C@H](CC(C)C)NC(=O)[C@H](Cc1ccc(O)cc1)NC(=O)[C@H](Cc1ccc(O)cc1)NC(=O)[C@H](Cc1ccccc1)NC(=O)[C@H](Cc1ccc(O)cc1)NC(C)=O)C(=O)N[C@H](C(=O)N[C@@H](Cc1ccc(O)cc1)C(=O)N[C@H](C(=O)N[C@@H](CC(C)C)C(=O)N[C@H](C(=O)N[C@@H](CO)C(=O)N[C@@H](Cc1ccccc1)C(=O)O)C(C)C)[C@@H](C)O)C(C)C [CNIH2] | 727 µM | 252 µM | 516 µM | 184 µM | 2080 µM | 888 µM | 2260 µM | 982 µM | – | – | – | – | – | – | – | – | –
4 | CC(=O)N[C@@H](Cc1ccc(O)cc1)C(=O)N[C@@H](CCCCN)C(=O)N[C@@H](CCCCN)C(=O)N[C@H](C(=O)N[C@@H](CC(C)C)C(=O)N[C@@H](CC(=O)O)C(=O)N[C@H](C(=O)N[C@@H](CCCCN)C(=O)N[C@@H](CC(N)=O)C(=O)N[C@@H](Cc1ccc(O)cc1)C(=O)N[C@@H](CCCCN)C(=O)N[C@@H](CCC(N)=O)C(=O)N[C@H](C(=O)N[C@@H](CO)C(=O)N[C@H](C(=O)O)C(C)C)[C@@H](C)O)[C@@H](C)O)C(C)C [CRIPT] | – | – | – | – | – | – | – | – | 0.868 µM | 2 µM | > 4.12 | 6 µM | 2.44 µM | 1.49 µM | 0.496 µM | – | –
5 | CC[C@H](C)[C@H](NC(=O)[C@H](Cc1ccc(O)cc1)NC(=O)[C@H](CO)NC(=O)CNC(=O)[C@H](CO)NC(=O)[C@H](CCC(N)=O)NC(=O)[C@H](Cc1ccc(O)cc1)NC(C)=O)C(=O)N[C@@H](Cc1c[nH]c2ccccc12)C(=O)N[C@H](C(=O)N1CCC[C@H]1C(=O)N[C@@H](C)C(=O)N[C@@H](CCCCN)C(=O)N[C@@H](CCC(=O)O)C(=O)N[C@@H](CCCCN)C(=O)N[C@@H](CC(C)C)C(=O)O)C(C)C [DLG1] | 1590 µM | 550 µM | 1310 µM | 466 µM | 1470 µM | 628 µM | 1600 µM | 692 µM | – | – | – | – | – | – | – | – | –
6 | CC(=O)N[C@@H](Cc1ccc(O)cc1)C(=O)N[C@@H](CC(=O)O)C(=O)N[C@@H](CO)C(=O)N[C@H](C(=O)N[C@@H](CCC(=O)O)C(=O)N[C@@H](CCC(N)=O)C(=O)N[C@@H](CO)C(=O)N[C@@H](CC(=O)O)C(=O)N[C@H](C(=O)N[C@@H](CCCNC(=N)N)C(=O)N[C@@H](Cc1ccccc1)C(=O)N[C@@H](CO)C(=O)N[C@@H](CO)C(=O)N[C@@H](C)C(=O)N[C@H](C(=O)O)C(C)C)C(C)C)[C@@H](C)O [GPER1] | – | – | – | – | – | – | – | – | 238 µM | 499 µM | – | 865 µM | 456 µM | 190 µM | 82 µM | 82 µM | 178 µM
7 | CC(=O)N[C@@H](Cc1ccc(O)cc1)C(=O)N[C@H](C(=O)N[C@@H](CCC(=O)O)C(=O)N[C@@H](CO)C(=O)N[C@@H](CCCCN)C(=O)N[C@@H](CCCCN)C(=O)N[C@@H](Cc1c[nH]cn1)C(=O)NCC(=O)N[C@@H](CCCNC(=N)N)C(=O)N[C@@H](Cc1c[nH]c2ccccc12)C(=O)N[C@@H](CCCCN)C(=O)N[C@@H](CC(C)C)C(=O)N[C@@H](Cc1c[nH]c2ccccc12)C(=O)N[C@@H](Cc1ccccc1)C(=O)N[C@@H](CC(C)C)C(=O)O)[C@@H](C)O [INSY2] | 980 µM | 339 µM | 1230 µM | 438 µM | 380 µM | 161 µM | 83 µM | 36 µM | – | – | – | – | – | – | – | – | –

Results, then the compound that gave them:

Row | IC50 [1, 5] | Ki [1, 6] | IC50 [2, 6] | Ki [2, 6] | IC50 [3, 6] | Ki [3, 6] | IC50 [4, 6] | Ki [4, 6] | IC50 [1, 7] | IC50 [2, 8] | pKi ([3]; FP displacement of 5 nM FITC-15 AA CRIPT by non-labeled acetylated peptide, room temperature, Ki from IC50, technical triplicates, PSG) | IC50 [3, 9] | Ki [3, 9] | IC50 [4, 10] | Ki [4, 10] | Ki [1, 7] | Ki [2, 8] | Compound
8 | – | – | – | – | – | – | – | – | 343 µM | 237 µM | – | 1500 µM | 793 µM | 564 µM | 244 µM | 119 µM | 84 µM | CC[C@H](C)[C@H](NC(=O)[C@H](CC(N)=O)NC(=O)CNC(=O)CNC(=O)[C@H](CO)NC(=O)[C@H](Cc1ccc(O)cc1)NC(=O)[C@H](CCC(=O)O)NC(=O)[C@@H]1CCCN1C(=O)[C@H](Cc1ccc(O)cc1)NC(C)=O)C(=O)N[C@H](C(=O)N[C@@H](CCCNC(=N)N)C(=O)N[C@H](C(=O)N[C@@H](CO)C(=O)N[C@@H](C)C(=O)N[C@@H](CC(C)C)C(=O)O)C(C)C)C(C)C [KCND2]
9 | – | – | – | – | – | – | – | – | 662 µM | 630 µM | – | 2120 µM | 902 µM | 462 µM | 200 µM | 229 µM | 224 µM | CC[C@H](C)[C@H](NC(=O)[C@H](CCC(=O)O)NC(=O)[C@@H](NC(=O)[C@H](CO)NC(=O)[C@H](CCC(=O)O)NC(=O)[C@@H](NC(=O)[C@H](CCCNC(=N)N)NC(=O)[C@H](CCC(=O)O)NC(=O)[C@H](CC(C)C)NC(=O)[C@H](CCCNC(=N)N)NC(=O)[C@H](CO)NC(=O)[C@@H]1CCCN1C(=O)[C@@H](NC(=O)[C@H](Cc1c[nH]c2ccccc12)NC(=O)[C@H](Cc1ccc(O)cc1)NC(C)=O)[C@@H](C)O)[C@@H](C)CC)[C@@H](C)O)C(=O)O [LZTS3]
10 | – | – | – | – | – | – | – | – | 1170 µM | – | – | 1220 µM | 518 µM | 2000 µM | 867 µM | 405 µM | – | CC(=O)N[C@@H](Cc1ccc(O)cc1)C(=O)N[C@@H](Cc1c[nH]cn1)C(=O)N[C@@H](Cc1c[nH]cn1)C(=O)N[C@H](C(=O)N[C@@H](CO)C(=O)N[C@@H](Cc1ccc(O)cc1)C(=O)N[C@H](C(=O)N[C@@H](C)C(=O)N[C@@H](CO)C(=O)N[C@@H](CCCCN)C(=O)N[C@H](C(=O)N[C@@H](CCC(=O)O)C(=O)N[C@H](C(=O)N[C@H](C(=O)N[C@H](C(=O)O)C(C)C)[C@@H](C)O)C(C)C)[C@@H](C)O)[C@@H](C)O)[C@@H](C)O [SHSA6]
11 | 733 µM | 254 µM | 663 µM | 236 µM | 1440 µM | 613 µM | – | – | – | – | – | – | – | – | – | – | – | CC[C@H](C)[C@H](NC(=O)[C@H](CC(C)C)NC(=O)[C@H](C)NC(=O)[C@@H](NC(=O)[C@H](C)NC(=O)[C@H](Cc1ccc(O)cc1)NC(C)=O)C(C)C)C(=O)N[C@@H](C)C(=O)N[C@@H](Cc1ccc(O)cc1)C(=O)N[C@@H](CC(C)C)C(=O)N[C@@H](CO)C(=O)N[C@@H](CCCCN)C(=O)N[C@@H](CC(N)=O)C(=O)N[C@@H](CC(N)=O)C(=O)N[C@@H](Cc1c[nH]cn1)C(=O)N[C@@H](CC(C)C)C(=O)O [SYNG1]
12 | 973 µM | 337 µM | 2060 µM | 736 µM | 2060 µM | 879 µM | – | – | – | – | – | – | – | – | – | – | – | Ac-YDKPLSKKHAHSVNF [PDLI5]
13 | – | – | – | – | 1390 µM | 592 µM | – | – | – | – | – | – | – | – | – | – | – | Ac-YSRQHSKLLDFDDVL [NSMF]
